From ChEMBL document CHEMBL5705899 (Biochem J, 2014)
The source made the active and inactive calls. The calls are words filed in the database; no cut-off is given here.

Legend:
[1] = target: Serine/threonine-protein kinase mTOR (Homo sapiens) (UniProt P42345); assay: Inhibition of human mTOR at 1 uM using casein as substrate in presence of 33P-ATP by ProQinase assay
[2] = target: Death-associated protein kinase 1 (Homo sapiens) (UniProt P53355); assay: Inhibition of recombinant human N-terminal GST-tagged DAPK1 (1 to 363 residues) expressed in Escherichia coli assessed as remaining activity at 1 uM using KKLNRTLSFAEPG as substrate incubated for 30 mins in presence of [gamma-33P]ATP by filter binding method relative to control
[3] = target: Activin receptor type-1B (Homo sapiens) (UniProt P36896); assay: Inhibition of human ACVR1B at 1 uM using RBER-CHKtide as substrate in presence of 33P-ATP by ProQinase assay
[4] = target: Tyrosine-protein kinase Fyn (Homo sapiens) (UniProt P06241); assay: Inhibition of human FYN at 1 uM using polyEY as substrate in presence of 33P-ATP by ProQinase assay
[5] = target: Dual specificity tyrosine-phosphorylation-regulated kinase 3 (Homo sapiens) (UniProt O43781); assay: Inhibition of recombinant human N-terminal GST-tagged DYRK3 (1 to 588 residues) expressed in Escherichia coli assessed as remaining activity at 1 uM using KKISGRLSPIMTEQ as substrate incubated for 30 mins in presence of [gamma-33P]ATP by filter binding method relative to control
[6] = target: Tyrosine-protein kinase TXK (Homo sapiens) (UniProt P42681); assay: Inhibition of human TXK at 1 uM using RBER-CHKtide as substrate in presence of 33P-ATP by ProQinase assay
[7] = target: Serine/threonine-protein kinase B-raf (Homo sapiens) (UniProt P15056); assay: Inhibition of human BRAF at 1 uM using MEK1-K97M as substrate in presence of 33P-ATP by ProQinase assay
[8] = target: Serine/threonine-protein kinase PAK 3 (Homo sapiens) (UniProt O75914); assay: Inhibition of human PAK3 at 1 uM using bio-4xCHKT as substrate in presence of 33P-ATP by ProQinase assay
[9] = target: Serine/threonine-protein kinase PAK 4 (Homo sapiens) (UniProt O96013); assay: Inhibition of human PAK4 at 1 uM using bio-4xCHKT as substrate in presence of 33P-ATP by ProQinase assay
[10] = target: Protein kinase C beta type (Homo sapiens) (UniProt P05771); assay: Inhibition of human PKCbeta2 at 1 uM using 3xChocktide-PKC as substrate in presence of 33P-ATP by ProQinase assay
[11] = target: Vascular endothelial growth factor receptor 2 (Homo sapiens) (UniProt P35968); assay: Inhibition of human VEGFR2 at 1 uM using polyEY as substrate in presence of 33P-ATP by ProQinase assay
[12] = target: Ribosomal protein S6 kinase alpha-3 (Homo sapiens) (UniProt P51812); assay: Inhibition of recombinant human N-terminal His6-tagged RSK2 (2 to 740 residues) expressed in baculovirus infected Sf21 cells assessed as remaining activity at 1 uM using KKLNRTLSVA as substrate incubated for 30 mins in presence of [gamma-33P]ATP by filter binding method relative to control
[13] = target: Mitogen-activated protein kinase kinase kinase 1 (Homo sapiens) (UniProt Q13233); assay: Inhibition of recombinant human N-terminal GST/C-terminal His6-tagged MEKK1 ((877 to 1563 residues) expressed in Escherichia coli assessed as remaining activity at 1 uM using MBP as substrate incubated for 30 mins in presence of [gamma-33P]ATP by filter binding method relative to control
[14] = target: Dual specificity tyrosine-phosphorylation-regulated kinase 1B (Homo sapiens) (UniProt Q9Y463); assay: Inhibition of human DYRK1B at 1 uM using RBER-CHKtide as substrate in presence of 33P-ATP by ProQinase assay
[15] = target: Serine/threonine-protein kinase Chk2 (Homo sapiens) (UniProt O96017); assay: Inhibition of recombinant human N-terminal GST/C-terminal His6-tagged CHK2 (5 to 543 residues) expressed in Escherichia coli assessed as remaining activity at 1 uM using CHKtide as substrate incubated for 30 mins in presence of [gamma-33P]ATP by filter binding method relative to control
[16] = target: Ephrin type-B receptor 2 (Homo sapiens) (UniProt P29323); assay: Inhibition of recombinant human N-terminal His6-tagged EPHB2 (560 to 987 residues) expressed in baculovirus infected Sf21 cells assessed as remaining activity at 1 uM using Poly (Glu,Tyr) as substrate incubated for 30 mins in presence of [gamma-33P]ATP by filter binding method relative to control
[17] = target: Tyrosine-protein kinase Tec (Homo sapiens) (UniProt P42680); assay: Inhibition of human TEC at 1 uM using polyEY as substrate in presence of 33P-ATP by ProQinase assay
[18] = target: Mitogen-activated protein kinase kinase kinase kinase 2 (Homo sapiens) (UniProt Q12851); assay: Inhibition of recombinant human N-terminal His6-tagged GCK (2 to 812 residues) expressed in baculovirus infected Sf21 cells assessed as remaining activity at 1 uM using MBP as substrate incubated for 30 mins in presence of [gamma-33P]ATP by filter binding method relative to control
[19] = target: Activin receptor type-1-like (Homo sapiens) (UniProt P37023); assay: Inhibition of human ACVRL1 at 1 uM using casein as substrate in presence of 33P-ATP by ProQinase assay
[20] = target: Dual specificity testis-specific protein kinase 1 (Homo sapiens) (UniProt Q15569); assay: Inhibition of recombinant human N-terminal GST-tagged TESK1 (1 to 315 residues) expressed in Escherichia coli assessed as remaining activity at 1 uM using Cofilin 2 as substrate incubated for 30 mins in presence of [gamma-33P]ATP by filter binding method relative to control
[21] = target: Mitogen-activated protein kinase 1 (Homo sapiens) (UniProt P28482); assay: Inhibition of human ERK2 at 1 uM using RBER-CHKtide as substrate in presence of 33P-ATP by ProQinase assay
[22] = target: Tyrosine-protein kinase HCK (Homo sapiens) (UniProt P08631); assay: Inhibition of human HCK at 1 uM using polyEY as substrate in presence of 33P-ATP by ProQinase assay
[23] = target: Mitogen-activated protein kinase 14 (Homo sapiens) (UniProt Q16539); assay: Inhibition of recombinant human N-terminal GST-tagged P38alpha (1 to 360 residues) expressed in Escherichia coli assessed as remaining activity at 1 uM using MBP as substrate incubated for 30 mins in presence of [gamma-33P]ATP by filter binding method relative to control
[24] = target: Protein kinase C epsilon type (Homo sapiens) (UniProt Q02156); assay: Inhibition of human PKCepsilon at 1 uM using 3xChocktide-PKC as substrate in presence of 33P-ATP by ProQinase assay

Mitogen-activated protein kinase kinase kinase 1 (Homo sapiens), sequence (Q13233 whole entry, the tested form may be a part): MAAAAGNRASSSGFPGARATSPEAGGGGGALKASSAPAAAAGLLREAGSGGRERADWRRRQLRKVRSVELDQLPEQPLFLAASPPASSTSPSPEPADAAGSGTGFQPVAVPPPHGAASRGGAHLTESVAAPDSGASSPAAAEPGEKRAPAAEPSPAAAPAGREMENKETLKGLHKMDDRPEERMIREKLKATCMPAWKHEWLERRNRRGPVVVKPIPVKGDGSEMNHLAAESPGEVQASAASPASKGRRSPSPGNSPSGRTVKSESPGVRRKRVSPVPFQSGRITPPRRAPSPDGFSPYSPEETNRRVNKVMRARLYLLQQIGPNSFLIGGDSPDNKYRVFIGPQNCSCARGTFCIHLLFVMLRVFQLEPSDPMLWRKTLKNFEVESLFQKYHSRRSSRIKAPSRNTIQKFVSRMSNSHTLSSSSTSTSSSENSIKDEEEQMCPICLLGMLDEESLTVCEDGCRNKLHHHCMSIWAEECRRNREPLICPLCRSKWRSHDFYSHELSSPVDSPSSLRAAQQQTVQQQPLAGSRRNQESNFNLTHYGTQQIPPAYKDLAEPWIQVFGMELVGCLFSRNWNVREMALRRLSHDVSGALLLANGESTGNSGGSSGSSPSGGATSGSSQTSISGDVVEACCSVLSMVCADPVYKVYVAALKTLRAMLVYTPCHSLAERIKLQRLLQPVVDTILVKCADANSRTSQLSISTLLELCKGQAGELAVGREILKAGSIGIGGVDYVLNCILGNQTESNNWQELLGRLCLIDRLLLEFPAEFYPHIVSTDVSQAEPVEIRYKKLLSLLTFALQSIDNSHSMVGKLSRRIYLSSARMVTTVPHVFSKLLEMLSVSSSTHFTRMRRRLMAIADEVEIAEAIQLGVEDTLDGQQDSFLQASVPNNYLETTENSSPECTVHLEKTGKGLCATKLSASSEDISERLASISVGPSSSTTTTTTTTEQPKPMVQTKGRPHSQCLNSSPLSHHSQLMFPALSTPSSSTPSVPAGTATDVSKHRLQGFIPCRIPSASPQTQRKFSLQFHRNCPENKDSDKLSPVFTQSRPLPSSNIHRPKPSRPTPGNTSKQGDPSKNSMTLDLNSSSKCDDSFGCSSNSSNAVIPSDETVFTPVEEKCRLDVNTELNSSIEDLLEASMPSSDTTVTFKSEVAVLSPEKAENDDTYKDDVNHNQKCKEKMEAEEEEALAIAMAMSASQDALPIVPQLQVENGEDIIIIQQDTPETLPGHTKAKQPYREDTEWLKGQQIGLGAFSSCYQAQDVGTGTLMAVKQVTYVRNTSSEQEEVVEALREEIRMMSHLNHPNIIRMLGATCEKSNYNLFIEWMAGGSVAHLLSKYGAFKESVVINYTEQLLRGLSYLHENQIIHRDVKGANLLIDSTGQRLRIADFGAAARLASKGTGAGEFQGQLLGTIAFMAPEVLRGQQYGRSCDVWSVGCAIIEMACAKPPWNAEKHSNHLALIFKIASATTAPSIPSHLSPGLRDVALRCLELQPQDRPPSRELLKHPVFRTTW
Mitogen-activated protein kinase 14 (Homo sapiens), sequence (Q16539 whole entry, the tested form may be a part): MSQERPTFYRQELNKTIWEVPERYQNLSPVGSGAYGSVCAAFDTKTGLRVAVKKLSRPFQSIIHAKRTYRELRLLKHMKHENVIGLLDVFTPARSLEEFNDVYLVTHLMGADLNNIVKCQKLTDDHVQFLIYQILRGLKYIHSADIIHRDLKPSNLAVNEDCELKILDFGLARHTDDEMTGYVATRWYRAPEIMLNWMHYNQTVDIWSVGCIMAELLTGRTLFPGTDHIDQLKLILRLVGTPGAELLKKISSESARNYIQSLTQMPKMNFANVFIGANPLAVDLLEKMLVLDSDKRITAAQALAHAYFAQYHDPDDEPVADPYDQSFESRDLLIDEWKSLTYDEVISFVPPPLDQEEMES
Ribosomal protein S6 kinase alpha-3 (Homo sapiens), sequence (P51812 whole entry, the tested form may be a part): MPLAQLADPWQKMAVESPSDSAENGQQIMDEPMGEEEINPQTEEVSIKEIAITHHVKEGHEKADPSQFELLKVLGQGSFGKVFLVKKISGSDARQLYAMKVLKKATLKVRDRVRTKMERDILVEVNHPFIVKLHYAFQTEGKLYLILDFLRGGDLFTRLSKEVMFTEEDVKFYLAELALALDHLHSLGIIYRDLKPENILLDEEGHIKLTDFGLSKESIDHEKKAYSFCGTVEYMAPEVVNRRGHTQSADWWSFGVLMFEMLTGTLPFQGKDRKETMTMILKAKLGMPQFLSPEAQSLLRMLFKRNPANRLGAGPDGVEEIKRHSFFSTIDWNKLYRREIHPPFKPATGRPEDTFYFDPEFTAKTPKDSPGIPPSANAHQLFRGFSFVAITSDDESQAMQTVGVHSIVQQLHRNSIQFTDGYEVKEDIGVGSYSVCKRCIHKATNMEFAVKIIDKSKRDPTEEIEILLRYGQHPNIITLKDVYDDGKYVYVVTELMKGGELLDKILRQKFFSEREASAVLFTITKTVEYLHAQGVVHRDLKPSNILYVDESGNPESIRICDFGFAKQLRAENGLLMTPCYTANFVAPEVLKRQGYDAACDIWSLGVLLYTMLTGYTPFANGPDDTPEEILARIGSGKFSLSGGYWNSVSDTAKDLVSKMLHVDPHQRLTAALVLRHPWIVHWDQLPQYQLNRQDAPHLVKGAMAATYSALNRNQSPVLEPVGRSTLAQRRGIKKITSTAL
Serine/threonine-protein kinase PAK 3 (Homo sapiens), sequence (O75914 whole entry, looked up): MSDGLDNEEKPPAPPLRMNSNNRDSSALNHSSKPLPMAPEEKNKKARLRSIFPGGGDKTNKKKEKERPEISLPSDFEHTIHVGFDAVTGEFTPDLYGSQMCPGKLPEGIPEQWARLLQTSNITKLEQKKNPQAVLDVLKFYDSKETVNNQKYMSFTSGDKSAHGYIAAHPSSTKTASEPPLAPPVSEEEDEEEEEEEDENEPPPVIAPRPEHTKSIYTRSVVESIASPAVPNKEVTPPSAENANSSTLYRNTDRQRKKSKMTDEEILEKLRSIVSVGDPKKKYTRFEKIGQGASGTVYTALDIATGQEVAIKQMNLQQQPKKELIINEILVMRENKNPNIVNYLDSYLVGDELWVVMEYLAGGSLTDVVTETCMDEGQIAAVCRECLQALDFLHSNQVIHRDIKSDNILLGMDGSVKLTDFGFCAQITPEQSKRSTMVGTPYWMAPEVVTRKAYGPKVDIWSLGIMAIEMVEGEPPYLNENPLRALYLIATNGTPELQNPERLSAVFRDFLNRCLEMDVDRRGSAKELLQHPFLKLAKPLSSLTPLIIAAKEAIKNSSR
Activin receptor type-1-like (Homo sapiens), sequence (P37023 whole entry, the tested form may be a part): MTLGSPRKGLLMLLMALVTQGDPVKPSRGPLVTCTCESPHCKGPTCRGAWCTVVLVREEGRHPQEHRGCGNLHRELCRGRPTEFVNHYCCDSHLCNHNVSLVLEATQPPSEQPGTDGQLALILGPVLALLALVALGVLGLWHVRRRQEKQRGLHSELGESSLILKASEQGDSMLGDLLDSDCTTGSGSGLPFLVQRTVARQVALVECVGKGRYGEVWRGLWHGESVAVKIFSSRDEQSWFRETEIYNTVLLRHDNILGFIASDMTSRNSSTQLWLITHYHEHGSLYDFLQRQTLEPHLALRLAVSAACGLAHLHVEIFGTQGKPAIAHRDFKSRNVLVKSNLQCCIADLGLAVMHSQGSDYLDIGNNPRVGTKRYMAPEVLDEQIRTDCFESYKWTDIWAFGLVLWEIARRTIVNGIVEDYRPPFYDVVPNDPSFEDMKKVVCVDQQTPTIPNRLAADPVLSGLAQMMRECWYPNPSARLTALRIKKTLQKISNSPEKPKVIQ
Serine/threonine-protein kinase PAK 4 (Homo sapiens), sequence (O96013 whole entry, looked up): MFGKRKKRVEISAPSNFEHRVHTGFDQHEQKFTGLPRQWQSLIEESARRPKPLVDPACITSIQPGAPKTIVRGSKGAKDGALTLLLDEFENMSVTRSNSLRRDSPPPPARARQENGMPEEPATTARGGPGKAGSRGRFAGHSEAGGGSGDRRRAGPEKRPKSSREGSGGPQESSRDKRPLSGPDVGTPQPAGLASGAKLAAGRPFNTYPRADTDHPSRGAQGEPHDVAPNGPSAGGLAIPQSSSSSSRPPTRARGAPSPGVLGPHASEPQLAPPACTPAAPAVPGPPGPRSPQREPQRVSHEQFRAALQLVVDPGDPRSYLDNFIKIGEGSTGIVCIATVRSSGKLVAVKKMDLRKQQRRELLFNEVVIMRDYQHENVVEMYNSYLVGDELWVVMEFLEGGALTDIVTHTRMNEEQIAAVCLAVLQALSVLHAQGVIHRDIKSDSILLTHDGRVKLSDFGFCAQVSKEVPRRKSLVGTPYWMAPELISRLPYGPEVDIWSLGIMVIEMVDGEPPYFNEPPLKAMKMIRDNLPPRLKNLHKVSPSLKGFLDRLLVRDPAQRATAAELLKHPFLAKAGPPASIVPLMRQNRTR
Dual specificity tyrosine-phosphorylation-regulated kinase 3 (Homo sapiens), sequence (O43781 whole entry, the tested form may be a part): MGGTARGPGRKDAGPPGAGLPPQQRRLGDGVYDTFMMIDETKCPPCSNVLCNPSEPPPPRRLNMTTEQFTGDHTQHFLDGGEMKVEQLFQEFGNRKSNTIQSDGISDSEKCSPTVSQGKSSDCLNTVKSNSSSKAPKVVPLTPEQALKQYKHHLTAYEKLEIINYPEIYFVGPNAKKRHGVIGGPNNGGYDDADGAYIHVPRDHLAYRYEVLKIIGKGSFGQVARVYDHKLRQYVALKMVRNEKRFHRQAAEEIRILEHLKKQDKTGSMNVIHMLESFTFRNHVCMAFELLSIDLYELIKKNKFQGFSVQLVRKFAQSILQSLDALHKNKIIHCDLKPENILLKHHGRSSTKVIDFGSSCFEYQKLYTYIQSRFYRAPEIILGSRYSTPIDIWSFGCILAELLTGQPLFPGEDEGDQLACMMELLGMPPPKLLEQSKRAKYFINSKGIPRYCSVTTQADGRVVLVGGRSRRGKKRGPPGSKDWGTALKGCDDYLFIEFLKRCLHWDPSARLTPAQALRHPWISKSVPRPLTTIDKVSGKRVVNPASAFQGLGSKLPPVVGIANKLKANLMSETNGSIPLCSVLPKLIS

Q: With `CC(C)(O)CNc1ncc(-c2ccnc(Nc3ccnc(Cl)c3)n2)c(CC2CC2)n1` as the compound, how does the inhibition [1] read?
A: Its inhibition is “inactive”.

Q: And the Activity [2]?
A: The Activity was 96%.

Q: What about the inhibition [3] of the same compound?
A: The inhibition was “inactive”.

Q: And the inhibition [4]?
A: The inhibition was “inactive”.

Q: And the Activity [5]?
A: The Activity was 112%.

Q: What about the inhibition [6] of the same compound?
A: The inhibition was “inactive”.

Q: And the inhibition [7]?
A: The inhibition was “inactive”.

Q: And the inhibition [8]?
A: Its inhibition is “inactive”.

Q: And the inhibition [9]?
A: The inhibition was “inactive”.

Q: And the inhibition [10]?
A: Its inhibition is “inactive”.

Q: What about the inhibition [11] of the same compound?
A: The inhibition was “inactive”.

Q: What about the Activity [12] of the same compound?
A: The Activity was 103%.

Q: And the Activity [13]?
A: Its Activity is 109%.

Q: What about the inhibition [14] of the same compound?
A: The inhibition was “inactive”.

Q: And the Activity [15]?
A: The Activity was 103%.

Q: What about the Activity [16] of the same compound?
A: Its Activity is 109%.

Q: What about the inhibition [17] of the same compound?
A: Its inhibition is “inactive”.

Q: What about the Activity [18] of the same compound?
A: Its Activity is 104%.

Q: And the inhibition [19]?
A: The inhibition was “inactive”.

Q: And the Activity [20]?
A: The Activity was 95%.

Q: What about the inhibition [21] of the same compound?
A: Its inhibition is “inactive”.

Q: What about the inhibition [22] of the same compound?
A: The inhibition was “inactive”.

Q: What about the Activity [23] of the same compound?
A: The Activity was 125%.

Q: And the inhibition [24]?
A: The inhibition was “inactive”.
